Experimental data from PMC3231940, “Disposition, metabolism and mass balance of [^14C]apremilast following oral administration” (Xenobiotica; the Fate of Foreign Compounds in Biological …, 2011).
“And” between values parts separate entries of the source, which are not always exact repeats. Equal values may be shown once.

Experiments:
[1] = test system: TNF-α production by human peripheral blood mononuclear cells; test: TNF-α production assay in LPS-stimulated PBMC; type: cell-based; conditions: LPS 1 ng/mL, 16-18 h, ELISA
Method: (§1) PDE4 enzyme was isolated from U937 human monocytic cells and used for testing inhibition in a cAMP hydrolysis assay as previously described ([Schafer et al. 2010]). For the TNF-α production assay, human peripheral blood mono-nuclear cells (PBMC) were isolated from buffy coat of normal donor blood units (Blood Center of New Jersey, East Orange, NJ) by density centrifugation over Ficoll Hypaque (Pharmacia, Piscataway, NJ). Cells were cultured in RPMI 1640 (Life Technologies, Grand Island, NY) supplemented with 5% AB^+ human serum (Gemini Bio-products, Woodland, CA), 2-mM L-glutamine, 100-U/mL penicillin and 100-μg/mL streptomycin (Life Technologies). PBMC (2×10^5 cells) were plated in 96-well flat-bottom Costar tissue culture plates (Corning, NY) in duplicate. Cells were stimulated with lipopolysaccharides (LPS) (from Salmonella abortus equi; Sigma cat.no. L-1887, St.Louis, MO) at a final concentration of 1 ng/mL in the absence or presence of compounds. The compounds were dissolved in DMSO (Sigma) and subsequent dilutions were done in culture medium immediately before use. The compounds were added to cells 1 h before LPS stimulation. The cells were incubated for 16-18 h at 37°C in 5% CO2, and super-natants were then collected, diluted with culture medium and assayed for TNF-α levels by enzyme-linked immunosorbent assay (ThermoFisher, Rockford, IL). Fifty percent inhibitory concentrations (IC50) for the PDE4 enzymatic and TNF-α assay were calculated by non-linear regression analysis using Prism 5.1 (GraphPad Software). Regression curves were sigmoidal dose response curves with maximum and minimum constrained to 100% and 0%, respectively.

[2] = test system: PDE4 enzyme isolated from U937 human monocytic cells; test: PDE4 inhibition, cAMP hydrolysis assay; type: biochemical; conditions: for IC50: PDE4 from U937 cells, cAMP hydrolysis
Method: as §1

[3] = Metabolite profiling by HPLC radiochromatography in plasma, urine and faeces; type: in vivo, human; design: key to Plasma (% AUC relative to TRA); share of circulating radioactivity / % of dose excreted, urine: ND: not detected; D: detected by MS, but at concentrations too low to accurately quantify by radiochromatography; conditions: for Plasma (% AUC relative to TRA); share of circulating radioactivity: AUC0-t (unchanged drug or metabolite)/AUC0-48 (TRA) * 100%; for % of dose excreted, faeces: faeces collected up to 96-h post-dose; for % of dose excreted, urine: urine collected up to 48-h post-dose; for Share of the excreted radioactivity / excreted dose: urine plus faeces; for half-life / Tmax: human; for half-life: read-out: Plasma t½ (converted); for Tmax: male; for Plasma Cmax: plasma radioactivity concentrations and radiochromatography
Method: Individual plasma samples collected from all subjects at 0.5, 1, 2.5, 8, 24, 36 and 48 h post-dose were analysed for metabolite profiling. A pooled sample (equal volume from 0.5,1,2.5,8 and 24 h) from subject 1 was also used for metabolite profiling. Three volumes of acetonitrile were added to each sample, followed by mixing and centrifu-gation. The supernatant was removed and the pellet was washed twice with acetonitrile. The combined superna-tants were evaporated to dryness under a stream of nitrogen. The residues were re-suspended in acetonitrile: 1% formic acid in water (1:1), assayed for extraction recovery and analysed for metabolite profiling.
For each subject, urine samples were pooled using an equal percentage by volume of the 0-4, 4-8, 8-12 and 12-24-h samples. The 24-48-h urine sample from each subject and a pool of the 0-168-h urine samples from subject 1 were also analysed for metabolite profiling. Samples were mixed and centrifuged prior to the supernatants being transferred to fresh tubes for metabolite profiling analysis.
Faecal homogenates for metabolite profiling were pooled using an equal percentage by weight to generate two pools (0-48 h and 48-96 h) for each subject. An additional pool (0-168 h) was prepared using the samples collected from subject 1. An aliquot (approximately 6 g) of each pool was extracted with three volumes of acetonitrile; samples were mixed and centrifuged. The supernatant was removed and the pellets were extracted twice with an additional 12 mL of acetonitrile each time. The combined supernatants were evaporated to dryness under a stream of nitrogen and the residue was re-suspended in a small volume (approximately 400 μL) of acetonitrile: 1% formic acid in water (1:1). Samples were assayed for extraction recovery prior to metabolite profiling.
HPLC analysis for metabolite profiling was performed using a Shimadzu LC-10ADVP (Shimadzu Corp., Columbia, MD) or a Waters 2695 Alliance Separation Module (Waters Corp., Milford, MA) with the autosampler set to an ambient temperature of approximately 22°C. ASPD-10A VPUV-Vis Detector or a Waters 996 Photodiode array detector set to 254 nm was used to detect UV absorbance. [^14C]Apremilast and metabolites were separated using a Phenomenex Luna C 18(2) column (150 × 4.6 mm, 3 μm; Phenomenex, Torrance, CA) equipped with a RP-18 guard column (15×3.2 mm, 7 μm) or using an ACE 3 C18 column (150 × 4.6 mm, 3 μm; Advanced Chromatography Technologies, Aberdeen, Scotland) equipped with an ACE 3 guard column (10×3mm, 3 μm). The mobile phases used were 0.4% formic acid in water; pH 3.2 with ammonium hydroxide (mobile phase A) and acetonitrile (mobile phase B). The column temperature was 30°C and the flow rate was 0.7mL/min. The linear gradient was delivered as follows: 0-5 min to 100% A; 5-20 min to 85% A; 20-30 min hold at 85% A; 30-50 min to 65% A; 50-60 min to 60% A; 60-70 min to 50% A; 70-75 min to 0% A; hold at 0% A until 80 min; return to initial conditions over 2 min.
Radioactivity profiles for excreta were determined by radiochromatography using liquid chromatography-accurate radioisotope counting stop-flow system (LC-ARC; AIM Research Company, Wilmington, DE). Radioactivity was detected using a β-Ram Radioflow detector (IN/US Systems, Brandon, FL) equipped with a 1300-μL liquid cell. Liquid scintillation cocktail and column eluate were mixed at a ratio of 2.5:1. Radioactive peaks were quantified using LC-ARC data handling software. Plasma radioactivity profiles were determined by collecting the column eluate into 96-well Deepwell LumaPlates at a rate of 0.25 min/fraction. The plates were dried and the radioactivity in each well determined using a PerkinElmer TopCount NXT Microplate Scintillation Counter. HPLC radiochromatograms were reconstructed using LC-ARC data handling software.
Pharmacokinetic data were generated by non-compartmental analysis of plasma or whole blood versus time profiles using WinNonlin (version 4.1, Enterprise Edition). […]

[4] = plasma, radiochromatography, single oral 20-mg dose, mean ± SD
[5] = plasma, radiochromatography, single oral 20-mg dose, median and range
[6] = single oral 20-mg dose, mean ± SD
[7] = radiochromatography, single oral 20-mg dose, mean ± SD

Row | Molecule | IC50 [1] | IC50 [2] | Plasma (% AUC relative to TRA); share of circulating radioactivity [3] | % of dose excreted, faeces [3] | % of dose excreted, urine [3] | further results
1 | CCOc1cc([C@@H](CS(C)(=O)=O)NC(=O)c2cccc(NC(C)=O)c2C(=O)O)ccc1OC [M1/M2] | 77 µM | 120 µM | D | 0.5 % of dose | 0.9 % of dose | –
2 | CCOc1cc([C@@H](CS(C)(=O)=O)N2C(=O)c3cccc(NC(C)=O)c3C2=O)ccc1O [Metabolite M3, O-desmethyl apremilast] | 5.6 µM | 8.3 µM | D | 5 % of dose and 4.6 % of dose | D | Share of the excreted radioactivity / excreted dose [3]: > 4%
3 | CCOc1cc([C@@H](CS(C)(=O)=O)N2C(=O)c3cccc(N)c3C2=O)ccc1O [Metabolite M4, N-deacetylated, O-desmethyl apremilast] | – | – | – | 2.4 % of dose | – | –
4 | COc1ccc([C@@H](CS(C)(=O)=O)N2C(=O)c3cccc(NC(C)=O)c3C2=O)cc1O [Metabolite M5, O-desethyl apremilast] | 4.9 µM | 44 µM | – | – | – | –
5 | CCOc1cc([C@@H](CS(C)(=O)=O)N2C(=O)c3cccc(N)c3C2=O)ccc1OC [Metabolite M7, N-deacetyl apremilast] | 0.13 µM | 0.16 µM | D | 0.1 % of dose | D | PDE4 and TNF-α inhibition activity compared with apremilast ([2]; both assays, in words): IC50 values similar to those of apremilast; Concentration in circulation relative to apremilast ([3]; plasma): < 2%
6 | CCOc1cc([C@@H](CS(C)(=O)=O)NC(=O)c2cccc(NC(C)=O)c2C(=O)O)ccc1O [Metabolite M9] | – | – | – | 8 % of dose and 7.7 % of dose | – | Share of the excreted radioactivity / excreted dose [3]: > 4%
7 | CCOc1cc([C@@H](CS(C)(=O)=O)N2C(=O)c3cccc(NC(=O)CO)c3C2=O)ccc1O [Metabolite M10, acetamide hydroxylated, O-desmethyl apremilast] | – | – | – | 1.3 % of dose | – | –
8 | CCOc1cc([C@@H](CS(C)(=O)=O)N2C(=O)c3cccc(NC(C)=O)c3C2=O)ccc1O[C@@H]1O[C@H](C(=O)O)[C@@H](O)[C@H](O)[C@H]1O [Metabolite M12, O-desmethyl apremilast glucuronide] | > 10 µM | > 100 µM | 38.7% | – | 34 % of dose and 33.7 % of dose | Plasma (% AUC relative to TRA); share of circulating radioactivity ([3]; listed as O-desmethyl apremilast glucuronide): 39%; half-life [3, 4]: 15.8 ± 3.9 h; Tmax [3, 5]: 2.5 h; Plasma Cmax [3, 6]: 111±36 ngEq/mL; Plasma AUC0-t [3, 7]: 2124±331 ngEq*h/mL; Plasma AUC0-∞ [3, 7]: 2446±416 ngEq*h/mL; Share of the excreted radioactivity / excreted dose [3]: 34%
9 | COc1ccc([C@@H](CS(C)(=O)=O)N2C(=O)c3cccc(NC(C)=O)c3C2=O)cc1OC1OC(C(=O)O)C(O)C(O)C1O (stereo partly shown) [Metabolite M13] | – | – | 2.4% | – | 2.0 % of dose | Tmax [3, 5]: 2.5 h; Plasma Cmax [3, 6]: 7.5±6.8 ngEq/mL; Plasma AUC0-t [3, 7]: 133±125 ngEq*h/mL
10 | CCOc1cc([C@@H](CS(C)(=O)=O)N2C(=O)c3cccc(N)c3C2=O)ccc1OC1OC(C(=O)O)C(O)C(O)C1O (stereo partly shown) [Metabolite M14, O-desmethyl, N-deacetyl apremilast glucuronide] | > 10 µM | > 80 µM | 4.9% | – | 4.0 % of dose | Tmax [3, 5]: 2.5 h; Plasma Cmax [3, 6]: 9.4±4.3 ngEq/mL; Plasma AUC0-t [3, 7]: 269±146 ngEq*h/mL
11 | CCOc1cc([C@@H](CS(C)(=O)=O)NC(=O)c2cccc(NC(C)=O)c2C(=O)O)ccc1OC1OC(C(=O)O)C(O)C(O)C1O (stereo partly shown) [Metabolite M15] | – | – | – | – | 3.3 % of dose | –
12 | hydroxylated N-deacetylated apremilast [Metabolite M11] | – | – | 2.5% | 1.4 % of dose | – | Plasma Cmax [3, 6]: 20.2±7.6 ngEq/mL; Plasma AUC0-t [3, 7]: 139±89 ngEq*h/mL; Plasma AUC0-∞ [3, 7]: 232±151 ngEq*h/mL; Plasma t½ [3, 7]: 10.7 ± 10.2 h; Plasma Tmax ([3]; radiochromatography, single oral 20-mg dose, median and range): 1.0(0.5-2.5) h
13 | hydroxylated N-deacetylated, O-desmethyl apremilast [Metabolite M8] | – | – | – | 1.0 % of dose | – | –

Second part, led by results:

Row | IC50 [1] | IC50 [2] | Plasma (% AUC relative to TRA); share of circulating radioactivity [3] | % of dose excreted, faeces [3] | % of dose excreted, urine [3] | Molecule | further results
14 | > 10 µM | 6.5 µM | 6.6% | – | 0.6 % of dose | CCOc1cc([C@@H](CS(C)(=O)=O)N2C(=O)c3cccc(NC(=O)COC4OC(C(=O)O)C(O)C(O)C4O)c3C2=O)ccc1OC (stereo partly shown) [Metabolite M16] | half-life [3, 4]: 11 ± 2.4 h; Tmax [3, 5]: 5.3 h; Plasma Cmax [3, 6]: 27.6±26.0 ngEq/mL; Plasma AUC0-t [3, 7]: 363 ±54 ngEq*h/mL; Plasma AUC0-∞ [3, 7]: 389±91 ngEq*h/mL
15 | – | – | – | 1.4 % of dose | – | CC(=O)Nc1cccc(C(=O)O)c1C(=O)O [Metabolite M18, 3-acetamide-phthalic acid] | –
16 | – | – | – | 0.8 % of dose | – | CC(=O)Nc1cccc2c1C(=O)N([C@H](CS(C)(=O)=O)c1ccc(O)c(O)c1)C2=O [Metabolite M19, O-desmethyl, O-desethyl apremilast] | –
17 | – | – | – | 0.5 % of dose | – | CS(=O)(=O)C[C@H](c1ccc(O)c(O)c1)N1C(=O)c2cccc(N)c2C1=O [Metabolite M20, N-deacetylated, O-desmethyl, O-desethyl apremilast] | –
18 | – | – | – | 0.6 % of dose | – | COc1ccc([C@@H](CS(C)(=O)=O)NC(=O)c2cccc(NC(C)=O)c2C(=O)O)cc1O [Metabolite M22] | –
19 | – | – | – | 3.0 % of dose | – | O=C(CO)Nc1cccc(C(=O)O)c1C(=O)O [Metabolite M23, hydroxy 3-acetamide-phthalic acid] | –
